# Results: ChEMBL document CHEMBL3046925, “,-Dibromoacetophenones mediated synthesis of some new 7H-7-alkoxy-3-alkyl/phenyl-6-aryl-s-triazolo[3,4-b][1,3,4]thiadiazines and their antimicrobial evaluation” (2012)
# Active and inactive are the calls of the source. No cut-off for these calls is given here.
# Columns and labels:
# [1] = tested on: Bacillus subtilis; assay: microbe, parasite or virus in culture; type: functional; conditions: MTCC 121, 24 h
# Description: (§1) Antimicrobial activity against Bacillus subtilis MTCC 121 at 2 mg/ml after 24 hr by two-fold serial dilution method
# [2] = tested on: Candida albicans; assay: Antimicrobial activity against Candida albicans MTCC 227 at 2 mg/ml by agar well diffusion method; type: functional; conditions: for zone of inhibition at 2000 µg/mL: read-out: DIZ
# [3] = tested on: Staphylococcus aureus; assay: Antimicrobial activity against Staphylococcus aureus MTCC 96 after 24 hr by two-fold serial dilution method; type: functional; conditions: MTCC 96, 24 h
# [4] = tested on: Escherichia coli; assay: Antimicrobial activity against Escherichia coli MTCC 1652 at 2 mg/ml after 24 hr by agar well diffusion method; type: functional, organism-based
# [5] = tested on: Pseudomonas aeruginosa; assay: Antimicrobial activity against Pseudomonas aeruginosa MTCC 741 at 2 mg/ml after 24 hr by agar well diffusion method; type: functional, organism-based
# [6] = tested on: Bacillus subtilis; assay: microbe, parasite or virus in culture; type: functional; conditions: MTCC 121, 24 h, read-out: DIZ
# Description: (§2) Antimicrobial activity against Bacillus subtilis MTCC 121 at 2 mg/ml after 24 hr by agar well diffusion method
# [7] = tested on: Staphylococcus aureus; assay: Antimicrobial activity against Staphylococcus aureus MTCC 96 at 2 mg/ml after 24 hr by agar well diffusion method; type: functional; conditions: MTCC 96, 24 h, read-out: DIZ
# [8] = tested on: Saccharomyces cerevisiae; assay: Antimicrobial activity against Saccharomyces cerevisiae MTCC 170 at 2 mg/ml after 24 hr by agar well diffusion method; type: functional; conditions: for zone of inhibition at 2000 µg/mL: MTCC 170, 24 h, read-out: DIZ
# [9] = tested on: Saccharomyces cerevisiae; assay: Antimicrobial activity against Saccharomyces cerevisiae MTCC 170 after 24 hr by two-fold serial dilution method; type: functional
# [10] = tested on: Candida albicans; assay: Antimicrobial activity against Candida albicans MTCC 227 at 2 mg/ml by two-fold serial dilution method; type: functional
# [11] = tested on: Staphylococcus aureus; conditions: MTCC 96
# [12] = tested on: Bacillus subtilis; conditions: MTCC 121
# Description: as §2
# [13] = tested on: Bacillus subtilis; conditions: MTCC 121; remark: listed apart in the source
# Description: as §1
# [14] = tested on: Staphylococcus aureus; conditions: MTCC 96; remark: listed apart in the source
MIC [1],MIC [3],"MIC ([9]; MTCC 170, 24 h)",MIC [10],MIC [9],MIC [11],MIC [13],Structure (SMILES),zone of inhibition at 2000 µg/mL [2],Activity [4],Activity [5],zone of inhibition at 2000 µg/mL [6],zone of inhibition at 2000 µg/mL [7],zone of inhibition at 2000 µg/mL [8],diameter of the inhibition zone (DIZ) [2],diameter of the inhibition zone (DIZ) [8],DIZ [12],DIZ [14]
64 µg/mL,64 µg/mL,128 µg/mL,128 µg/mL,–,–,–,COC1Sc2nncn2N=C1c1ccccc1 (stereo not drawn),13.3 mm,inactive,inactive,18.6 mm,19.6 mm,13.6 mm,–,–,–,–
> 256 µg/mL,256 µg/mL,–,inactive,inactive,–,–,CCc1nnc2n1N=C(c1ccccc1)C(OC(C)C)S2 (stereo not drawn),–,inactive,inactive,12.3 mm,13.6 mm,–,inactive,inactive,–,–
32 µg/mL,32 µg/mL,64 µg/mL,64 µg/mL,–,–,–,CCc1nnc2n1N=C(c1ccccc1)C(OC)S2 (stereo not drawn),16.3 mm,inactive,inactive,21.6 mm,22.3 mm,15.3 mm,–,–,–,–
64 µg/mL,128 µg/mL,128 µg/mL,inactive,–,–,–,CCOC1Sc2nncn2N=C1c1ccccc1 (stereo not drawn),13.6 mm,inactive,inactive,20.3 mm,16.3 mm,13.6 mm,–,–,–,–
128 µg/mL,256 µg/mL,64 µg/mL,inactive,–,–,–,CCCOC1Sc2nnc(CCC)n2N=C1c1ccccc1 (stereo not drawn),–,inactive,inactive,16.3 mm,13.6 mm,15.3 mm,inactive,–,–,–
128 µg/mL,> 256 µg/mL,> 256 µg/mL,inactive,–,–,–,CCCOC1Sc2nnc(CC)n2N=C1c1ccc(Cl)cc1 (stereo not drawn),–,inactive,inactive,16.3 mm,12.6 mm,10.3 mm,inactive,–,–,–
64 µg/mL,128 µg/mL,–,inactive,inactive,–,–,CCCOC1Sc2nncn2N=C1c1ccccc1 (stereo not drawn),–,inactive,inactive,18.3 mm,15.6 mm,–,inactive,inactive,–,–
256 µg/mL,> 256 µg/mL,–,inactive,inactive,–,–,CCCc1nnc2n1N=C(c1ccccc1)C(OC(C)C)S2 (stereo not drawn),–,inactive,inactive,14.6 mm,12.3 mm,–,inactive,inactive,–,–
–,–,32 µg/mL,64 µg/mL,–,inactive,inactive,CCOC1Sc2nnc(CC)n2N=C1c1ccc(Cl)cc1 (stereo not drawn),15.6 mm,inactive,inactive,–,–,18.3 mm,–,–,inactive,inactive

# The next lines start with the compound.
Structure (SMILES),MIC [1],MIC [3],"MIC ([9]; MTCC 170, 24 h)",MIC [10],MIC [9],MIC [11],MIC [13],zone of inhibition at 2000 µg/mL [2],Activity [4],Activity [5],zone of inhibition at 2000 µg/mL [6],zone of inhibition at 2000 µg/mL [7],zone of inhibition at 2000 µg/mL [8],diameter of the inhibition zone (DIZ) [2],diameter of the inhibition zone (DIZ) [8],DIZ [12],DIZ [14]
COC1Sc2nnc(-c3ccccc3)n2N=C1c1ccccc1 (stereo not drawn),64 µg/mL,16 µg/mL,32 µg/mL,inactive,–,–,–,–,inactive,inactive,18 mm,25.6 mm,18.6 mm,inactive,–,–,–
CC(C)OC1Sc2nncn2N=C1c1ccccc1 (stereo not drawn),256 µg/mL,256 µg/mL,128 µg/mL,inactive,–,–,–,–,inactive,inactive,13.6 mm,14.6 mm,13.3 mm,inactive,–,–,–
CCc1nnc2n1N=C(c1ccc(Cl)cc1)C(OC(C)C)S2 (stereo not drawn),> 256 µg/mL,> 256 µg/mL,> 256 µg/mL,inactive,–,–,–,–,inactive,inactive,12.3 mm,11.3 mm,11.3 mm,inactive,–,–,–
C[C@@H]1[C@H](O)[C@@H](C)/C=C/C=C/C=C/C=C/C=C/C=C/C=C/[C@H](O[C@@H]2O[C@H](C)[C@@H](O)[C@H](N)[C@@H]2O)C[C@@H]2O[C@](O)(C[C@@H](O)C[C@@H](O)[C@H](O)CC[C@@H](O)C[C@@H](O)CC(=O)O[C@H]1C)C[C@H](O)[C@H]2C(=O)O [AMPHOTERICIN B],–,–,100 µg/mL,100 µg/mL,–,–,–,14.3 mm,–,–,–,–,13.6 mm,–,–,–,–
CCOC1Sc2nnc(CC)n2N=C1c1ccc(Br)cc1 (stereo not drawn),256 µg/mL,> 256 µg/mL,–,inactive,inactive,–,–,–,inactive,inactive,13.6 mm,12.3 mm,–,inactive,inactive,–,–
CC(C)OC1Sc2nnc(-c3ccccc3)n2N=C1c1ccccc1 (stereo not drawn),256 µg/mL,128 µg/mL,128 µg/mL,inactive,–,–,–,–,inactive,inactive,15.6 mm,18.3 mm,13.3 mm,inactive,–,–,–
CCc1nnc2n1N=C(c1ccc(Cl)cc1)C(OC)S2 (stereo not drawn),128 µg/mL,64 µg/mL,128 µg/mL,128 µg/mL,–,–,–,13 mm,inactive,inactive,16.3 mm,19.3 mm,12.6 mm,–,–,–,–
CCOC1Sc2nnc(CC)n2N=C1c1ccccc1 (stereo not drawn),64 µg/mL,256 µg/mL,–,inactive,inactive,–,–,–,inactive,inactive,18.3 mm,13.6 mm,–,inactive,inactive,–,–
CCOC1Sc2nnc(CC)n2N=C1c1ccc(F)cc1 (stereo not drawn),–,–,128 µg/mL,128 µg/mL,–,inactive,inactive,13 mm,inactive,inactive,–,–,13.6 mm,–,–,inactive,inactive
CCCc1nnc2n1N=C(c1ccccc1)C(OC)S2 (stereo not drawn),64 µg/mL,128 µg/mL,256 µg/mL,inactive,–,–,–,–,inactive,inactive,18.3 mm,16 mm,12.6 mm,inactive,–,–,–
CCCOC1Sc2nnc(CC)n2N=C1c1ccccc1 (stereo not drawn),256 µg/mL,256 µg/mL,–,inactive,inactive,–,–,–,inactive,inactive,13.6 mm,14 mm,–,inactive,inactive,–,–
CCCc1nnc2n1N=C(c1ccccc1)C(OCC)S2 (stereo not drawn),128 µg/mL,256 µg/mL,–,inactive,inactive,–,–,–,inactive,inactive,17.6 mm,13.6 mm,–,inactive,inactive,–,–
O=C(O)c1cn(C2CC2)c2cc(N3CCNCC3)c(F)cc2c1=O [CIPROFLOXACIN],5 µg/mL,5 µg/mL,–,–,–,–,–,–,–,–,24 mm,26.6 mm,–,–,–,–,–
CCOC1Sc2nnc(-c3ccccc3)n2N=C1c1ccccc1 (stereo not drawn),128 µg/mL,16 µg/mL,32 µg/mL,64 µg/mL,–,–,–,15.6 mm,inactive,inactive,17.6 mm,24.3 mm,17.6 mm,–,–,–,–
CCOC1Sc2nnc(CC)n2N=C1c1ccc(C)cc1 (stereo not drawn),128 µg/mL,> 256 µg/mL,> 256 µg/mL,inactive,–,–,–,–,inactive,inactive,17 mm,12.3 mm,10.6 mm,inactive,–,–,–
CCCOC1Sc2nnc(-c3ccccc3)n2N=C1c1ccccc1 (stereo not drawn),128 µg/mL,64 µg/mL,64 µg/mL,inactive,–,–,–,–,inactive,inactive,17.3 mm,20.6 mm,17.3 mm,inactive,–,–,–
